Measurements from patent US10851051B2, “Compositions and methods for treating multiple myeloma” (THE BROAD INSTITUTE, INC., priority 2015, dated 2020).
Entries after “also recorded” stand apart in the source; their conditions may differ. One block for each compound: values may come before it.

Key:
[1] = tested on: stroma-dependent myeloma cells (primary MM, MOLP5); assay: Viability of stroma-dependent myeloma cells co-cultured with bone marrow stromal cells (imaging, 3 days); type: cell-based; conditions: primary MM and MOLP5, FIG. 1B-1C
Excerpt: (§1) BRD9647 was identified in a phenotypic screening of multiple myeloma cells as a growth inhibitor of certain stroma-dependent myeloma cells. […] FIG. 1B is a plot showing viability of multiple myeloma cell lines (primary multiple myeloma (primary MM) cells (with stroma), MOLP5 (with stroma), and MM1S (with stroma)) treated with various concentrations of BRD9647. For these experiments GFP-labeled MOLP5 and MM1S cells were co-cultured with unlabeled primary human bone marrow stromal cells in 384-well plates and exposed to increasing concentrations of BRD9647 for 3 days. At the end of this period, wells were imaged in the GFP channel with the IXMicro automated high-throughput microscope (Molecular Devices), remaining GFP positive cells were quantified using the MetaXpress software (Molecular Devices) and expressed as percentages of DMSO (vehicle) controls. Unlabeled primary MM cells were similar treated with BRD9647 but were stained with the calcein-acetoxymethyl ester dye at the end of the treatment period. The dye fluoresces green inside viable cells that contain esterase enzymes. Viable cells were imaged and quantified similar to GFP-positive myeloma cell-lines using size, shape and staining intensity to distinguish primary MM from stromal cells. […] Viable cells in these experiments after 3 days of compound exposure were measured using the Cell Titer Glo reagent (Promega).

[2] = tested on: ~100 cell lines from the Broad Institute CTD2 Center; assay: Viability of ~100 Broad CTD2 cell lines (Cell Titer Glo, 3 days); type: cell-based; conditions: 3 days compound exposure, FIG. 1D
Excerpt: as §1

[3] = tested on: MOLP5 cells expressing AZIN1-WT; assay: Viability of MOLP5 cells expressing wild-type AZIN1 under BRD9647; type: cell-based; conditions: FIG. 4D, 5A; lentiviral AZIN1-WT
Excerpt: MOLP5 cells sensitive to BRD9647 contained a mutation in AZIN1 (FIG. 4B). The mutation in AZIN1 was S367G. MOLP5 cells raised to be resistant to BRD9647 through serial exposures to increasing concentrations of BRD9647 over 3 months (MOLP5-R) lost the AZIN1 mutation that conferred sensitivity to BRD9647 (FIG. 4C). For experiments in FIGS. 4B and 4C, RNA was isolated from MOLP5 or MOLP5-R cells and converted into complementary DNA (cDNA). The AZIN1 polynucleotide was PCR amplified from cDNA then subject to Sanger sequencing. […] The growth of MOLP5 AZIN1-WT expressing cells in the presence of BRD9647 resembles the growth of untreated MOLP5 cells. For these experiments, lentiviral vectors (pLX_TRC304) encoding the AZIN1 open reading frame with the wild-type sequence or S367G mutant sequence and the puromycin resistance gene were transduced into MOLP5 cells which were then subjected to puromycin selection. […] A schematic of AZIN1 S367G's role in polyamine synthesis is shown at FIG. 6.

MOLP5 cells [4] = assay: Spermidine rescue of growth inhibition in MOLP5 cells; type: cell-based; conditions: MOLP5 + 10 or 100 μM spermidine, FIG. 7A
Protocol: MOLP5 cells with 100 μM spermidine (“MOLP5+100 μM Spd”), and MOLP5 cells with 10 μM spermidine (“MOLP5+10 μM Spd”), each.
Polyamines such as spermidine rescued the effects of BRD9647. FIG. 7B depicts the structure of spermidine. […] However, BRD9647 may be reactive with spermidine, as polyamines such as spermidine or spermine can directly react with BRD9647 via a benzoylation reaction (FIG. 7C) to form benzoylated polyamine products (FIG. 8 and FIG. 9).

MOLP5 cells [5] = assay: Gene expression profiling of treated MOLP5 cells (microarray, GSEA); type: cell-based; conditions: 10 μM, 6 hours
Protocol: Gene-expression analysis identified endoplasmic reticulum (ER) stress as an effect of BRD9647 in BRD9647-sensitive cells. […] For this experiment, MOLP5 cells were exposed to DMSO or 10 μM BRD9647 for 6 hours then subject to total RNA extraction using the TRIzol reagent (Thermo-Fisher). RNA was then hybridized to the Affymetrix U133 2.0 Plus oligonucleotide microarray (Affymetrix) and relative transcripts quantified following the manufacturer's protocol. Differential gene expression analysis was conducted using the Comparative Marker Selection module of GenePattern software (www.broadinstitute.org/genepattern). […] As show in FIG. 2C, Connectivity Map (CMap) analysis was conducted (www.broadinstitute.org/cmap) to compare a gene expression profile of […] with known gene expression profiles of over 5000 compounds to identify potential drugs showing a similar mechanism of action. Protein synthesis inhibitors of interest identified by the analysis are shown in boxes (FIG. 2C).

[6] = tested on: benzoylated lysines on proteins; assay: Immunoblot for benzoylated lysines (Kbz antibody) in treated cells; type: cell-based; conditions: versus DMSO controls, FIG. 15
MOLP5 cells [7] = assay: Growth inhibition of MOLP5 cells by BRD9647 analogs; type: cell-based; conditions: FIG. 1E; for growth inhibition in MOLP5 cells compared with other analogs: various concentrations
Excerpt: BRD9647 was identified in a phenotypic screening of multiple myeloma cells as a growth inhibitor of certain stroma-dependent myeloma cells. […] FIG. 1B is a plot showing viability of multiple myeloma cell lines (primary multiple myeloma (primary MM) cells (with stroma), MOLP5 (with stroma), and MM1S (with stroma)) treated with various concentrations of BRD9647. For these experiments GFP-labeled MOLP5 and MM1S cells were co-cultured with unlabeled primary human bone marrow stromal cells in 384-well plates and exposed to increasing concentrations of BRD9647 for 3 days. At the end of this period, wells were imaged in the GFP channel with the IXMicro automated high-throughput microscope (Molecular Devices), remaining GFP positive cells were quantified using the MetaXpress software (Molecular Devices) and expressed as percentages of DMSO (vehicle) controls. Unlabeled primary MM cells were similar treated with BRD9647 but were stained with the calcein-acetoxymethyl ester dye at the end of the treatment period. The dye fluoresces green inside viable cells that contain esterase enzymes. Viable cells were imaged and quantified similar to GFP-positive myeloma cell-lines using size, shape and staining intensity to distinguish primary MM from stromal cells. FIG. 1C depicts images showing the viability of primary MM and MOLP5 myeloma cell lines that received BRD9647 treatment in the presence and absence of stromal co-culture. […] Viable cells in these experiments after 3 days of compound exposure were measured using the Cell Titer Glo reagent (Promega).
Fluoro-benzoyl analogs of BRD9647 were synthesized and used to study the structure-function relationship between BRD9647 and each compound's ability to inhibit growth in MOLP5 cells. […] The BRD9647 analogs measured were either mono-fluorinated at the para (FIG. 1F), meta (FIG. 1G), or ortho (FIG. 1H) positions of the benzoyl ring, or tri-fluorinated at both meta positions and one ortho position of the ring (FIG. 1I). […]

[8] = tested on: purified proteins (recombinant proteins, histones); assay: Incubation of labeled compound with purified proteins (SDS-PAGE autoradiography, mass spectrometry); type: biochemical; conditions: FIG. 12, 13
BRD9647-sensitive cells = assay: Tracing of radiolabeled compound in cell extracts (TRIzol, TLC, protein extract); type: cell-based; conditions: TRIzol or protein extract of treated cells, FIG. 10, 14
Protocol: FIG. 10 is a diagram showing results of a tracing experiment with a TRIzol treated extract of cells treated with 10 μM ^14C-BRD9647 for six hours.
In FIG. 14, the workflow and results of a ^14C-BRD9647 tracing experiment with protein extract from cells treated with ^14C-BRD9647 are shown.

Structure (SMILES): COc1ccc(N(C(=O)c2ccccc2)S(=O)(=O)c2cc(OC)ccc2OC)cc1 [BRD9647]
toxicity to myeloma cells with and without stromal co-culture [1]: selectively toxic to stroma-dependent myeloma cells | viability of cell line panel [2]: inhibited stroma-dependent multiple myeloma (MM) cells, but not most cell lines | sensitivity of MOLP5 cells expressing wild-type AZIN1 [3]: wild-type AZIN1 expression in MOLP5 cells conferred resistance to BRD9647 | growth inhibition in presence of excess spermidine (MOLP5 cells [4]): excess spermidine rescued BRD9647 growth inhibition | gene expression signature of treated cells (MOLP5 cells [5]): under ER stress or amino acid deprivation | benzoylated lysines in treated cells [6]: an increase in benzoylated lysines

Structure (SMILES): COc1ccc(N(C(=O)c2ccc(F)cc2)S(=O)(=O)c2cc(OC)ccc2OC)cc1 [Compound 1]
growth inhibitory activity in MOLP5 cells compared with BRD9647 (MOLP5 cells [7]; FIG. 3): similar, if not increased efficacy to BRD9647 | growth inhibition in MOLP5 cells compared with other analogs (MOLP5 cells [7]): increased growth inhibition at each concentration of active over m-fluorobenzoyl (zb-179-2) or o-fluorobenzoyl analogs (zb-16-14)

Structure (SMILES): COc1ccc(N(C(=O)c2cc(F)cc(F)c2F)S(=O)(=O)c2cc(OC)ccc2OC)cc1 [Compound 4]
growth inhibition in MOLP5 cells compared with other analogs (MOLP5 cells [7]): all mono substituted analogs appear to inhibit growth substantially more than the tri-fluorinated analog

covalent binding to purified proteins [8]: identify labeled lysines
Structure (SMILES): COc1ccc(N(C(=O)c2ccccc2)S(=O)(=O)c2cc(OC)ccc2OC)cc1 [^13C-BRD9647]

Structure (SMILES): COc1ccc(N(C(=O)c2ccccc2)S(=O)(=O)c2cc(OC)ccc2OC)cc1 [^14C-BRD9647]
protein binding in treated cells (BRD9647-sensitive cells): suggest protein binding or modification of proteins; also recorded: tight protein binding at ˜15 kD molecular weight | covalent binding to purified proteins [8]: covalent binding of ^14C-BRD9647 with purified proteins was possible
